Tests used:
Assay type in all cases: in vivo
Setaria viridis (SETVI) [1] = test: Post-emergence herbicidal action against SETVI
Outline: (§1)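 Greenhouse plants sprayed at the one-leaf stage, 2–3 weeks after sowing, with WP or EC formulations plus 0.5% additive at 600 l/ha water. Activity rated visually after about 3 weeks versus untreated controls (100% = dead, 0% = like control), at 320 g/ha or lower.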

[2] = system: Verconica persica (VERPE); test: Post-emergence herbicidal action against VERPE
Outline: as §1

[3] = system: Pharbitis purpurea (PHBPU); test: Post-emergence herbicidal action against PHBPU
Outline: as §1

Avena fatua (AVEFA) = test: Pre-emergence herbicidal action against AVEFA; details: visual scoring after about 3 weeks vs untreated controls
Outline: (§2)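 Dosages of 320 g/ha or less; pre-emergence; WP or EC in aqueous spray, 0.5% additive, 600 l/ha; greenhouse; visual % effect after ~3 wk relative to control pots.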

Viola tricolor (VIOTR) [4] = test: Post-emergence herbicidal action against VIOTR
Outline: as §1

[5] = system: Echinochloa crus-galli (ECHCG); test: Pre-emergence herbicidal action against ECHCG
Outline: as §2

Viola tricolor (VIOTR) [6] = test: Pre-emergence herbicidal action against VIOTR
Outline: as §2

[7] = system: Verconica persica (VERPE); test: Pre-emergence herbicidal action against VERPE
Outline: as §2

Setaria viridis (SETVI) [8] = test: Pre-emergence herbicidal action against SETVI
Outline: as §2

[9] = system: Echinochloa crus-galli (ECHCG); test: Post-emergence herbicidal action against ECHCG
Outline: as §1

SMILES | Post-emergence action against SETVI in % (Setaria viridis (SETVI) [1]; dosage 80 g/ha) [%] | Post-emergence action against SETVI in % (Setaria viridis (SETVI) [1]; dosage 320 g/ha) [%] | Post-emergence action against VERPE in % ([2]; 320 g/ha, VERPE) [%] | Post-emergence action against VERPE in % ([2]; dosage 80 g/ha) [%] | Post-emergence action against PHBPU in % ([3]; dosage 80 g/ha) [%] | Post-emergence action against PHBPU in % ([3]; dosage 320 g/ha) [%] | Pre-emergence action against AVEFA in % (Avena fatua (AVEFA); 80 g/ha) [%] | Pre-emergence action against AVEFA in % (Avena fatua (AVEFA); 320 g/ha) [%] | Post-emergence action against VIOTR in % (Viola tricolor (VIOTR) [4]; 80 g/ha) [%] | Post-emergence action against VIOTR in % (Viola tricolor (VIOTR) [4]; 320 g/ha) [%] | Pre-emergence action against ECHCG in % ([5]; dosage 80 g/ha) [%] | Pre-emergence action against ECHCG in % ([5]; dosage 320 g/ha) [%] | Pre-emergence action against VIOTR in % (Viola tricolor (VIOTR) [6]; 320 g/ha, Viola tricolor) [%] | Pre-emergence action against VIOTR in % (Viola tricolor (VIOTR) [6]; dosage 80 g/ha) [%] | Pre-emergence action against VERPE in % ([7]; dosage 320 g/ha) [%] | Pre-emergence action against SETVI in % (Setaria viridis (SETVI) [8]; dosage 80 g/ha) [%] | Pre-emergence action against SETVI in % (Setaria viridis (SETVI) [8]; dosage 320 g/ha) [%] | Post-emergence action against ECHCG in % ([9]; dosage 80 g/ha) [%] | Post-emergence action against ECHCG in % ([9]; dosage 320 g/ha) [%] | Pre-emergence action against VERPE in % ([7]; dosage 80 g/ha) [%]
O=C(O)COc1nn(-c2ncccc2F)c(-c2ccc(F)nc2)c1Br [Example I-08] | 80 | 90 | 90 | 90 | 80 | 80 | 80 | 90 | 80 | 80 | 80 | 100 | 100 | 100 | 100 | 90 | 100 | 80 | 90 | 
COC(=O)[C@@H](C)Oc1nn(-c2nc(F)ccc2F)c(-c2cncc(F)c2)c1C1CC1 [Example I-171] | 90 | 90 | 90 | 80 | 80 | 90 | 90 | 100 | 90 | 90 | 100 | 100 | 100 | 100 | 100 | 100 | 100 | 80 | 80 | 100
COCCOC(=O)COc1nn(-c2ccccn2)c(-c2ccc(F)nc2)c1Br [Example I-96] | 90 | 90 | 90 | 80 | 90 | 90 |  | 90 | 90 | 90 | 80 | 100 | 90 |  | 90 | 100 | 100 | 90 | 90 | 90
COC(=O)C(C)NC(=O)[C@@H](C)Oc1nn(-c2ccccn2)c(-c2cncc(F)c2)c1Cl (some centres unmarked) [Example I-199] | 80 | 90 | 90 | 90 |  | 80 | 80 | 90 | 80 | 80 | 90 | 90 | 100 | 100 | 100 | 90 | 100 | 90 | 90 | 90
COC(=O)[C@@H](C)Oc1nn(-c2ncccc2F)c(-c2ccc(F)nc2)c1I [Example I-341] | 80 | 80 | 90 | 90 | 90 | 100 |  | 90 | 80 | 80 | 80 | 100 | 100 | 100 | 100 | 80 | 100 | 100 | 100 | 
COC(=O)COc1nn(-c2nc(F)ccc2F)c(-c2cncc(F)c2)c1C1CC1 [Example I-164] | 80 | 80 | 80 | 80 | 80 | 90 | 90 | 90 |  | 80 | 90 | 100 | 100 | 100 | 100 | 100 | 100 | 80 | 80 | 90
COC(=O)CNC(=O)[C@@H](C)Oc1nn(-c2ccccn2)c(-c2cncc(F)c2)c1Br [Example I-187] |  | 80 | 90 | 90 |  | 80 |  | 90 | 80 | 90 | 90 | 100 | 100 | 100 | 90 | 100 | 100 | 80 | 80 | 90
O=C(O)COc1nn(-c2nc(F)ccc2F)c(-c2cncc(F)c2)c1C1CC1 [Example I-148] | 80 | 80 | 80 | 80 | 80 | 90 | 80 | 90 | 80 | 80 | 90 | 100 | 100 | 100 | 100 | 90 | 100 | 80 | 80 | 90
COC(=O)COc1nn(-c2ncccc2F)c(-c2cncc(F)c2)c1C1CC1 [Example I-167] |  | 80 | 80 | 80 | 90 | 90 | 90 | 90 | 80 | 80 | 100 | 100 | 100 | 100 | 100 | 100 | 100 | 80 | 80 | 100
COC(=O)COc1nn(-c2ncccc2F)c(-c2ccc(F)nc2)c1Br [Example I-07] | 90 | 90 | 90 | 90 | 80 | 80 |  | 90 | 90 | 90 |  | 100 | 100 | 90 | 100 |  | 100 |  | 90 | 
COC(=O)[C@@H](C)COC(=O)COc1nn(-c2ccccn2)c(-c2cncc(F)c2)c1Br [Example I-194] | 90 | 90 | 80 |  | 90 | 90 | 80 | 90 | 80 | 80 | 80 | 100 | 100 |  | 90 | 90 | 100 | 80 | 80 | 
CCOC(=O)[C@@H](C)Oc1nn(-c2nc(F)ccc2F)c(-c2cncc(F)c2)c1Cl [Example I-208] | 80 | 80 | 80 | 80 | 80 | 90 | 80 | 90 | 80 | 80 | 90 | 100 | 100 | 100 | 100 | 90 | 100 | 80 | 90 | 90
